Reference: PubChem BioAssay (NCI)
Several values for one entry are separate records, joined by “and”; a condition that tells them apart may be missing. Equal values may be shown once.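 1) Cells in 96-well plates. 2) Compound, 48 h, 5 concentrations. 3) Linear interpolation between surrounding doses. 4) Unreached endpoint = highest concentration. The concentration for 50% growth inhibition is given as GI50. TGI denotes the concentration required for complete inhibition of growth.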

Assays:
Assay in all cases: NCI-60 cell line screen, 48 h
[1] = test system: A498 renal
[2] = test system: DU-145 prostate
[3] = test system: HOP-62 NSCLC
[4] = test system: M14 melanoma
[5] = test system: MDA-MB-231 breast
[6] = test system: NCI-H522 lung
[7] = test system: SF-539 CNS
[8] = test system: SK-MEL-2 melanoma
[9] = test system: T-47D breast
[10] = test system: UO-31 renal

| SMILES | GI50 [1] | TGI [1] | GI50 [2] | TGI [2] | GI50 [3] | TGI [3] | GI50 [4] | TGI [4] | GI50 [5] | TGI [5] | GI50 [6] | TGI [6] | GI50 [7] | TGI [7] | GI50 [8] | TGI [8] | GI50 [9] | TGI [9] | GI50 [10] | TGI [10] |
| --- | --- | --- | --- | --- | --- | --- | --- | --- | --- | --- | --- | --- | --- | --- | --- | --- | --- | --- | --- | --- |
| CN1CCN(c2ccc(C(=O)Nc3n[nH]c4ccc(Cc5cc(F)cc(F)c5)cc34)c(NC3CCOCC3)c2)CC1 | 1.77 µM and 0.846 µM | 6.85 µM and 2.24 µM | 4.22 µM and 1.65 µM | > 10 µM and 3.04 µM | 2.66 µM | > 10 µM | 1.58 µM and 1.69 µM | 3.2 µM and 3.4 µM | 1.89 µM and 1.5 µM | 5.51 µM and 3.06 µM | 1.6 µM and 1.7 µM | 3.36 µM and 3.24 µM | 2.66 µM and 1.56 µM | > 10 µM and 2.92 µM | 4.5 µM and 1.86 µM | > 10 µM and 3.53 µM | 1.99 µM | > 10 µM | 1.03 µM and 1.17 µM | 2.28 µM and 2.61 µM |
| COc1cc(-c2nn3c(/C=C4/C(=O)Nc5ccccc54)c(-c4ccc(C)cc4)nc3s2)cc(OC)c1OC | 7.28 µM | 36.7 µM | 2.55 µM | > 100 µM | 4.14 µM | 23.3 µM |  |  | 3.51 µM | 20.8 µM | 10.2 µM | 37.5 µM | 12.9 µM | 96 µM | 16.3 µM | 30.9 µM | 3.13 µM | > 100 µM | 8.44 µM | > 100 µM |
| Cc1c2cnccc2c(C)c2c1c1cc(C3OCCCO3)ccc1n2C | 0.139 µM | 0.52 µM | 0.371 µM | 1.58 µM | 0.286 µM | 1.82 µM | 0.317 µM | 1.16 µM | 0.322 µM | 1.8 µM | 0.466 µM | 2.48 µM | 0.272 µM | 1.32 µM | 0.314 µM | 1.22 µM | 0.299 µM | 3.16 µM | 0.278 µM | 2.27 µM |
| O=C(c1ccccc1)c1c(NCC(O)CN2CCCC2)n(Cc2ccccc2)c(=O)n(Cc2ccccc2)c1=O (stereo unspecified) | 2.3 µM | 12.7 µM | 17.8 µM | 34.7 µM | 21.7 µM | 49.5 µM | 17.5 µM | 33.9 µM | 15.3 µM | 29.6 µM | 19.8 µM | 35.6 µM | 19.6 µM | 33.9 µM | 20.5 µM | 39 µM | 21.3 µM | 45.7 µM | 18.8 µM | 40.2 µM |
| C=CC(=O)Nc1ccc(Nc2nccc(-c3ccc(N4CCCC4)c(C#N)c3)n2)cc1 | 4.82 µM | 24.9 µM | 14.1 µM | > 25 µM | 10.9 µM | > 25 µM | 22.8 µM | > 25 µM | > 25 µM | > 25 µM | 9.97 µM | > 25 µM | 6.88 µM | > 25 µM | 22.7 µM | > 25 µM | > 25 µM | > 25 µM | 1.06 µM | > 25 µM |
| O=C(/C=C/c1ccc(B(O)O)cc1)/C=C/c1ccc(B(O)O)cc1 | 2.34 µM | 10.3 µM | 4.63 µM | 14.9 µM | 10.3 µM | 22 µM | 2.23 µM | 5.9 µM | 3.08 µM | 10.8 µM | 4.07 µM | 15.7 µM | 2.03 µM | 5.35 µM | 16 µM | 40.9 µM | 2.7 µM | 12.3 µM | 1.91 µM | 4.73 µM |
| C=C1C(=O)O[C@H]2[C@H]1CC/C(CNC(=O)/C=C/c1ccc(Br)cc1)=C\CC[C@@]1(C)O[C@@H]21 | 0.236 µM | 2.45 µM | 0.743 µM | 2.02 µM | 2.2 µM | 6.87 µM | 1.11 µM | 2.69 µM | 1.41 µM | 2.94 µM | 0.711 µM | 2.3 µM | 0.873 µM | 2.28 µM | 1.4 µM | 3.02 µM | 1.74 µM | 4.73 µM | 0.97 µM | 2.19 µM |
| C(=Nc1ccccc1)C1CCCC[N-]1.C(=Nc1ccccc1)C1CCCC[N-]1.[Cu+2].[O-][Cl+3]([O-])([O-])O (stereo unspecified) | 18.1 µM | 44.9 µM | 8.48 µM | 36.9 µM | 15.5 µM | 54.6 µM | 7.4 µM | 27.9 µM | 9.75 µM | 28.1 µM | 13.3 µM | 52.1 µM | 17.7 µM | 42.3 µM | 15.8 µM | 40.9 µM | 21.6 µM | > 100 µM | 12.6 µM | > 94.3 µM |
| CC1=C([Se]CC(OC(=O)[C@@H](CSSC(C)(C)C)NC(=O)OC(C)(C)C)C(=O)NC(C)(C)C)C(=O)c2ccccc2C1=O (stereo partly specified) | 1.42 µM | 3.83 µM | 1.81 µM | 3.22 µM | 0.762 µM | 2.81 µM | 1.26 µM | 2.58 µM | 1.45 µM | 2.76 µM | 1.55 µM | 2.99 µM | 1.43 µM | 2.74 µM | 1.47 µM | 2.88 µM | 1.44 µM | 3.48 µM |  |  |
| COc1ccc(-c2[nH]ncc2-c2cc3c(c(OC)c2)OCC(=O)N3)cc1 | 0.17 µM | 0.646 µM | 1.18 µM | > 100 µM | 0.544 µM | 80.3 µM | 0.384 µM | > 89.2 µM | 1.21 µM | > 100 µM | 0.247 µM | 6.33 µM | 0.372 µM | 2.16 µM | 0.564 µM | 81.6 µM | 0.406 µM | 42.9 µM | 1.44 µM | 53.8 µM |
| O=C(O)CSCc1cccc2ccccc12 |  | > 100 µM |  | > 100 µM |  | > 100 µM |  | > 100 µM |  | > 100 µM |  | > 100 µM |  | > 100 µM |  | > 100 µM |  | > 100 µM |  | > 100 µM |
| CNC(=O)c1cc(COc2nnc(Nc3ccc(Cl)cc3)c3ccoc23)ccn1 | 6.65 µM and > 10 µM | 21.9 µM and > 10 µM | 9.43 µM and > 10 µM | 26 µM and > 10 µM | 3.31 µM and 9.48 µM | 16 µM and > 10 µM | 15.7 µM and > 10 µM | 54.9 µM and > 10 µM | 3.43 µM and > 10 µM | 13.8 µM and > 10 µM | 2.85 µM and 8.83 µM | 11.9 µM and > 10 µM | 1.53 µM and 1.89 µM | 5.86 µM and > 10 µM | 6.71 µM and > 10 µM | 21 µM and > 10 µM | 2.87 µM and 5.77 µM | 12.5 µM and > 10 µM | 3.3 µM and 4.57 µM | 15 µM and > 10 µM |
| Cc1ccccc1NC(=S)Nc1ccccn1 | > 100 µM | > 100 µM | > 100 µM | > 100 µM | > 100 µM | > 100 µM | > 100 µM | > 100 µM | 89.7 µM | > 100 µM | > 100 µM | > 100 µM | > 100 µM | > 100 µM | > 100 µM | > 100 µM | 55.7 µM | > 100 µM | > 100 µM | > 100 µM |
